Assay in all cases: inhibition of tumour cell growth, NCI panel, 48 h
In test [1] the test system is HCC-2998 colon.
The subject of test [2] is IGROV1 ovarian.
The subject of test [3] is K-562 leukemia.
The test system of test [4] is M14 melanoma.
For test [5], the system named is MDA-MB-435.
Test [6] concerns RXF 393 renal.
Test [7] relates to SK-MEL-28 melanoma.
For test [8], the system named is SNB-75 CNS.
Test [9] concerns TK-10 renal.
Test [10] has as its system A498 renal.

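Following 48 hours of exposure in 96-well plates, responses at five concentrations were used to interpolate endpoints linearly. At the GI50, growth is halved. TGI is the concentration that stops growth completely.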

On to `O=[N+]([O-])c1ccc(/C=N\Nc2ccc([N+](=O)[O-])cn2)cc1`, for which the TGI in [1], in test [2], in [3], in test [4], in [5] and in [6] was over 100 µM in each case. For the same compound, the TGI in test [7], in test [8] and in test [9] was over 100 µM each time.

Take `COc1ccc2[nH]c3c([N+](=O)[O-])ccc(Cl)c3c(=O)c2c1`: the TGI in [10] was over 100 µM; in test [1], over 71.2 µM; in test [2], 18.6 µM; in [3] it was 13.2 µM; in test [4], 35.9 µM; in test [5], over 55.8 µM. Further, the values for the TGI in test [6], in test [7] and in test [9] were 32.2 µM, 98.1 µM and over 56.6 µM, respectively.

For `C=C1CC23CCC4C(C)(C(=O)O)CCCC4(C)C2CCC1C3` (stereo not drawn), the TGI in test [10] was over 100 µM; in test [1], 78.6 µM; in [2] it was 94.9 µM; in test [3], over 100 µM; in test [4] it was over 100 µM; in test [5] it was over 100 µM. Besides, the TGI in test [6], in test [7], in [8] and in test [9] was over 100 µM each time.

Turning to `c1ccc(-n2cnnc2-c2nsc3ccccc23)cc1`, the TGI in test [1], in test [2], in [3], in test [4], in test [6] and in test [7] was over 100 µM throughout. The TGI in test [8] and in test [9] was over 100 µM in each case.

As to `C/C1=N\NC(=O)c2ccccc2C(=O)N/N=C(\C)c2cccc1n2.O=[N+]([O-])[O-].[Zn+2]`, the TGI in test [10], in test [1], in [2], in test [3], in test [4] and in test [7] was over 100 µM throughout. The TGI in [8] and in test [9] was over 100 µM in each case.

On to `COc1cc(C(C)(C)C)cc(OC)c1C(O)(c1c(OC)cc(C(C)(C)C)cc1OC)c1c(OC)cc(C(C)(C)C)cc1OC`, for which the GI50 in test [10] was 0.477 µM; in test [1] it was 0.429 µM; in test [2] it was 0.316 µM; in [4] it was 0.381 µM; in test [5] it was 0.306 µM; in [6], 0.324 µM. Also, the TGI was 2.53 µM in test [10]; 1.36 µM in [1]; 0.873 µM in [2]; 1.13 µM in test [4]; 0.974 µM in test [5]; 0.871 µM in [6].

Take `O=C(O)CC(C(=O)O)C1c2ccccc2-c2ccccc21` (stereo not drawn): the TGI in test [10], in [1], in [2], in test [3], in test [4] and in [5] was over 100 µM each time. In addition, the TGI in test [6], in test [7] and in [9] was over 100 µM each time.

Consider `C=C(C)C1CC2=C(O1)C(=O)c1ccccc1C2=O` (stereo not drawn), for which the TGI in test [1] was determined as 39.3 µM; in test [2] it was 36.1 µM; in test [3], 42.1 µM; in test [4], 33.1 µM; in [6], 33 µM; in test [7] it was 34.2 µM. Also, the TGI stood at 31.8 µM in test [8] and 46.3 µM in [9].

`Nc1cc(S(=O)(=O)O)cc2cc(S(=O)(=O)O)c(N=Nc3ccc(-c4ccc(N=Nc5c(S(=O)(=O)O)cc6cc(S(=O)(=O)O)cc(N)c6c5O)cc4)cc3)c(O)c12`: the TGI in test [10], in test [1], in test [2], in test [3], in test [6] and in test [7] was over 100 µM in each case. In [8], the TGI is over 100 µM.

Turning to `C[C@H](C(=O)N[C@@H](Cc1ccc(-c2ccccc2)cc1)C(=O)NC1CC(C)(C)N(C)C(C)(C)C1)c1ccc(-c2ccccc2)c(F)c1`, the GI50 in test [1] is 1.74 µM; in test [4], 1.74 µM; in test [5], 1.29 µM; in test [6], 0.884 µM; in test [7] it was 1.67 µM; in test [8], 1.35 µM. In addition, the GI50 in [9] was 1.75 µM. Besides, the TGI in test [1] came to 3.42 µM; in [4] it was 3.39 µM; in [5], 2.56 µM; in [6], 2.28 µM; in [7], 3.18 µM; in test [8] it was 3.74 µM. Further, in [9], the TGI turned out to be 3.32 µM.

For the compound `C=C(C)[C@@H]1CC[C@]2(C(=O)Nc3ccccn3)CC[C@]3(C)[C@H](CC[C@@H]4[C@@]5(C)CCCNC(C)(C)[C@@H]5CC[C@]43C)[C@@H]12`, the GI50 in [10] was 2.25 µM; in [3], 1.45 µM; in [6], 1.79 µM; in test [7], 1.69 µM; in test [8], 1.72 µM; in test [9], 2.26 µM. For the same compound, the TGI came out at 7.96 µM in [10]; 4.78 µM in test [3]; 3.27 µM in test [6]; 3.13 µM in [7]; 5.89 µM in [8]; 5.45 µM in test [9].

On to `OC(Cc1ccccc1)(Cc1ccccc1)c1ccccc1`, for which the TGI in [10] is 34.1 µM; in test [2] it was 33.7 µM; in test [3], over 100 µM; in [4], 33.3 µM; in [5] it was 33.4 µM; in test [6] it was 29.3 µM. In addition, the TGI came to 47.3 µM in test [7] and 42.6 µM in [9].

As to `COc1ccc(-c2nn(-c3ccc(NC(=O)Nc4ccc(Cl)c(Cl)c4)cc3)cc2-c2ccncc2)cc1Cl`, the GI50 in test [10] was 1.75 µM; in [1], 2.78 µM; in test [2], 3.44 µM; in test [3], 1.43 µM; in test [4], 1.79 µM; in [5], 2.3 µM. For the same compound, the GI50 was 0.862 µM in [6], 2.7 µM in test [7], 1.17 µM in [8] and 2.04 µM in [9]. Further, the TGI in [10] was 8.04 µM; in test [1], over 100 µM; in [2] it was over 100 µM; in test [3] it was over 100 µM; in test [4], 5.04 µM; in [5], over 100 µM. In addition, the TGI was 2.89 µM in test [6], 68.2 µM in test [7], over 100 µM in test [8] and over 100 µM in test [9].

As to `C[N+]1(C)CCOC(O)(c2ccccc2)C1` (stereo not drawn), the TGI in test [10], in test [2], in test [3], in test [4], in [5] and in test [6] was over 100 µM each time. For the same compound, the TGI in test [7], in [8] and in [9] was over 100 µM each time.

Take `Cc1ccc(P(c2ccc(C)cc2)c2ccc(C)cc2)cc1`: the TGI in [10] was 79.3 µM; in test [1] it was 36 µM; in test [2], 53.6 µM; in [3], over 100 µM; in [4], 50.3 µM; in test [5], 41.1 µM. Besides, the TGI was 30 µM in test [6], 56 µM in [7], 49.5 µM in test [8] and over 100 µM in test [9].

Take `CCN(CC)C(=S)SC(=S)N(CC)CC`: the TGI in test [10], in test [1], in [2], in test [3], in [4] and in test [5] was over 100 µM throughout. Besides, the TGI in test [6] was over 100 µM; in [7], over 100 µM; in [8] it was 99.2 µM; in [9], over 100 µM.

Take `CC(C)(C)C1(c2ccc(C3(c4ccccc4)Oc4ccccc4S3)[nH]2)Oc2ccccc2S1` (stereo not drawn): the TGI in test [1], in test [2], in test [3], in test [4], in test [6] and in test [9] was over 100 µM in each case.

`O=Nc1ccc(O)c2ncccc12`: the TGI in [10] was 42.4 µM; in test [1], 31.1 µM; in [2] it was 18.9 µM; in [3] it was over 100 µM; in [4], 20.7 µM; in test [5], 3.83 µM. The TGI in test [6] was 5.61 µM; in test [7] it was 17.3 µM; in [8], 8.48 µM; in test [9], 28.2 µM.

Regarding `COC1/C=C\OC2(C)Oc3c(C)c(O)c4c(O)c(c(/C=N\OCCCc5ccccc5)c(O)c4c3C2=O)NC(=O)/C(C)=C\C=C/C(C)C(O)C(C)C(O)C(C)C(OC(C)=O)C1C` (stereo not drawn), the TGI worked out at 20.5 µM in [10]; 25.6 µM in test [1]; 6.74 µM in test [2]; 15.4 µM in test [3]; 6.76 µM in test [4]; 9.28 µM in test [5]. Moreover, the TGI is 6.92 µM in test [6], 4.65 µM in test [7], 8.86 µM in [8] and 8.47 µM in test [9].

Regarding `N=C(N)c1ccc(-c2ccc(-c3cncc4ccccc34)s2)cc1F`, the GI50 in test [10] was 1.06 µM; in test [4] it was 1.8 µM; in test [5] it was 1.86 µM; in test [6] it was 1.75 µM; in test [7], 1.75 µM; in test [8], 1.73 µM. Further, the TGI turned out to be 2.5 µM in [10]; 3.4 µM in test [4]; 3.49 µM in test [5]; 3.67 µM in test [6]; 3.41 µM in test [7]; 3.14 µM in test [8].

Consider `C=C(C)C(=O)OC1C(C(C)CCCO)=C(CO)CC2OC(=O)C(=C)C21` (stereo not drawn), for which the TGI came out at 36.5 µM in test [10]; 31.8 µM in test [1]; 38.8 µM in test [2]; 49.4 µM in test [3]; 33.8 µM in test [4]; 52.1 µM in [5]. Besides, the TGI in [6] was 27.2 µM; in test [7] it was 49.1 µM; in test [8], 40.5 µM; in test [9] it was over 100 µM.

For the compound `Nc1ccc(OCC(O)N2C(=O)c3ccccc3C2=O)cc1` (stereo not drawn), the TGI in test [1], in test [2], in test [3], in [4], in test [5] and in test [7] was over 100 µM throughout. Besides, the TGI in test [9] was over 100 µM.

For the origin of these results see PubChem BioAssay (NCI).
